Source: patent publication EP1105136B1, “METHOD FOR TREATING OCULAR NEOVASCULAR DISEASES” (Novartis AG, priority 1998, dated 2000)

Columns and labels:
PDGF receptors = assay: cellular autophosphorylation assay in transfected Chinese hamster ovary cells; format: cell-based; conditions: Chinese hamster ovary cells transfected with RTK gene
Description: (§1) In vivo activity requires drugs to enter cells and therefore agents are tested in cellular autophosphorylation assays, using Chinese hamster ovary cells transfected with one of several RTK genes.

VEGF receptors = assay: as above; format: cell-based; conditions: Chinese hamster ovary cells transfected with RTK gene
Description: as §1

c-Kit = molecular target: T1, c-Kit (Homo sapiens, UniProt P10721); assay: as above; format: cell-based; conditions: Chinese hamster ovary cells transfected with RTK gene
T1 construct: expressed in transfected cells; host or cells: Chinese hamster ovary cells
Description: as §1

c-erbB2 = c-erbB2 (Homo sapiens, UniProt P04626); assay: as above; format: cell-based; conditions: Chinese hamster ovary cells transfected with RTK gene
insulin receptor = molecular target: T2, insulin receptor (Homo sapiens, UniProt P06213); assay: as above; format: cell-based; conditions: Chinese hamster ovary cells transfected with RTK gene
T2 construct: expressed in transfected cells; host or cells: Chinese hamster ovary cells

[1] = system: retinal neovascularization in mice with ischemic retinopathy; assay: retinal neovascularization in mice with oxygen-induced ischemic retinopathy; format: in vivo, C57/BL6J mice
[2] = system: retinal vascular development; assay: retinal vascular development in neonatal mice; format: in vivo, C57/BL6J mice
Description: Litters of newborn C57/BL6J mice are divided into treatment and control groups which received daily subcutaneous injections of 10 mg/kg of drug or vehicle, respectively. At P7 or P10, mice are anesthetized with ether, and perfused with 1 ml of phosphate-buffered saline containing 50 mg/ml of fluorescein-labeled dextran (2x10^6 average mw, Sigma, St. Louis, MO).. The eyes are removed and fixed for 1 hour in 10% phosphate-buffered formalin. The cornea and lens are removed and the entire retina is carefully dissected from the eyecup, radially cut from the edge of the retina to the equator in all 4 quadrants, and flat-mounted in Aquamount. with photoreceptors facing upward.

[3] = system: retinal vessels in adult mice; assay: effect on retinal vessels in adult mice; format: in vivo, C57BL6J mice; conditions: 50 mg/kg/day
Flk-1 = Flk-1 (Mus musculus, UniProt P35918); conditions: mouse versus human VEGF receptor 2
[4] = system: choroidal neovascularization; assay: laser-induced choroidal neovascularization in mice; conditions: 50 mg/kg/day by gavage, two weeks after laser
[5] = P17 mice, 2.5 mg/kg twice a day
[6] = P17 mice, 25 mg/kg twice a day, gavage, 5 days

Sequence of c-erbB2 (P04626 23-1255): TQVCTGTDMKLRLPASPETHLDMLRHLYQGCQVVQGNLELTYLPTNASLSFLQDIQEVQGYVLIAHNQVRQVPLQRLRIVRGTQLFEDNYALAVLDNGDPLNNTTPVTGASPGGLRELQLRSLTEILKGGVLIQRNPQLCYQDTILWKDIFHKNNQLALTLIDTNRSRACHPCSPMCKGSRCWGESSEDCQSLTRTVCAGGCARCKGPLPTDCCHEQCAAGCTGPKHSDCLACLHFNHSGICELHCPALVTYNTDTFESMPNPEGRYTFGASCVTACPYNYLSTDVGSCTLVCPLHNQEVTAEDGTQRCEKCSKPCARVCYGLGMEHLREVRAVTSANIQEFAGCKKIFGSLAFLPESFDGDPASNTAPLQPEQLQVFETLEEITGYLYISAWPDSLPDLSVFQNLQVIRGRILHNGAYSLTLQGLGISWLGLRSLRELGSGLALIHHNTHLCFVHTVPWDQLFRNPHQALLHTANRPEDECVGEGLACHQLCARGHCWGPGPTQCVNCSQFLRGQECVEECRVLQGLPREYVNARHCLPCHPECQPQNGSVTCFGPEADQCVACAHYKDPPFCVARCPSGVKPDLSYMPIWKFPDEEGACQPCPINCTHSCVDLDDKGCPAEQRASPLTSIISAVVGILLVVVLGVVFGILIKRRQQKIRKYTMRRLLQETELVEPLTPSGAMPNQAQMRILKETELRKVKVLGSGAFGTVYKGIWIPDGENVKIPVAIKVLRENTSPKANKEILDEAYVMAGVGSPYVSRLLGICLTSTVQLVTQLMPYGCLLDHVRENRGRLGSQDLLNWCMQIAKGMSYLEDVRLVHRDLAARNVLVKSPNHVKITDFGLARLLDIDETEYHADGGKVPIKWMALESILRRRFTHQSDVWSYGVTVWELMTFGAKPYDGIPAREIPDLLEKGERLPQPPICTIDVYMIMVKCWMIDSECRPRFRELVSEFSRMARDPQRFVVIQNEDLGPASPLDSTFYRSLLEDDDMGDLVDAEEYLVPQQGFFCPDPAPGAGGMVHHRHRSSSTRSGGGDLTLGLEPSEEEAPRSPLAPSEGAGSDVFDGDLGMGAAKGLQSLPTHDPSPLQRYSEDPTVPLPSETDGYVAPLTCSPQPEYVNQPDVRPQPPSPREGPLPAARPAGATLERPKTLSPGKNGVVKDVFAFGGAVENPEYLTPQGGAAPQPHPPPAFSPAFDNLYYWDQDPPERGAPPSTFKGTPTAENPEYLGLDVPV
Sequence of Flk-1 (P35918 832-1160 limits assumed): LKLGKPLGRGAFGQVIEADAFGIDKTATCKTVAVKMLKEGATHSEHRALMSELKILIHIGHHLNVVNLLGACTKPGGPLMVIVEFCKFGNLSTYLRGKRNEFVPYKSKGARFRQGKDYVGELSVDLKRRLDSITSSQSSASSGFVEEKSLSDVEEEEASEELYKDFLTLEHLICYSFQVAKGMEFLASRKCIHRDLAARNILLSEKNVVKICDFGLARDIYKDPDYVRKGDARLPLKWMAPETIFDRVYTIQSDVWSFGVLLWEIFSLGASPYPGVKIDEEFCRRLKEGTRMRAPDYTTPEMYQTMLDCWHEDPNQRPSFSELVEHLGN
T1 sequence (P10721 26-976): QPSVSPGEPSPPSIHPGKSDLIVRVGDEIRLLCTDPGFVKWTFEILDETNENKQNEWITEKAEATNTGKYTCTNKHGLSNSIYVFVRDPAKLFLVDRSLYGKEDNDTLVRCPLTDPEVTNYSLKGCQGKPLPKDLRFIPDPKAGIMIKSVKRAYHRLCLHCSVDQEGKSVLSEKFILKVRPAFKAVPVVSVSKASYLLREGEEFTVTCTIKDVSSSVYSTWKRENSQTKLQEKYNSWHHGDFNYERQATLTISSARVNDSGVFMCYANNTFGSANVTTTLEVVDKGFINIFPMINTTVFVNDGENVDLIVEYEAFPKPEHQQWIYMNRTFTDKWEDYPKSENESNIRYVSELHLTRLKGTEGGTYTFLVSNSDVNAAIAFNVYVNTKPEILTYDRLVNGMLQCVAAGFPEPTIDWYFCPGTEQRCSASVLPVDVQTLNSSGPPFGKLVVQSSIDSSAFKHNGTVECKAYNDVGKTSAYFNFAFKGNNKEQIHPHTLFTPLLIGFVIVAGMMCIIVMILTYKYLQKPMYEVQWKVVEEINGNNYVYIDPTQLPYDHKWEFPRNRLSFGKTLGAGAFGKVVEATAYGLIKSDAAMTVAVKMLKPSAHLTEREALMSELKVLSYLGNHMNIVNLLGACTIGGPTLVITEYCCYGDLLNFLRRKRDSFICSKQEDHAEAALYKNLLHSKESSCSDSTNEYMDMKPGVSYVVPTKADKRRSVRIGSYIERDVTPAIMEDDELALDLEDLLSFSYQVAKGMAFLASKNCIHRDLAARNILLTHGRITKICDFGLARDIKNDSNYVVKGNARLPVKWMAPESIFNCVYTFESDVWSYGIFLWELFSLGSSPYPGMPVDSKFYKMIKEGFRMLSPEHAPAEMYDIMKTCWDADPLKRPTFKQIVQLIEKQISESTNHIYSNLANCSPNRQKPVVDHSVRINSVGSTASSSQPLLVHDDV
T2 sequence (P06213 28-1382, species assumed): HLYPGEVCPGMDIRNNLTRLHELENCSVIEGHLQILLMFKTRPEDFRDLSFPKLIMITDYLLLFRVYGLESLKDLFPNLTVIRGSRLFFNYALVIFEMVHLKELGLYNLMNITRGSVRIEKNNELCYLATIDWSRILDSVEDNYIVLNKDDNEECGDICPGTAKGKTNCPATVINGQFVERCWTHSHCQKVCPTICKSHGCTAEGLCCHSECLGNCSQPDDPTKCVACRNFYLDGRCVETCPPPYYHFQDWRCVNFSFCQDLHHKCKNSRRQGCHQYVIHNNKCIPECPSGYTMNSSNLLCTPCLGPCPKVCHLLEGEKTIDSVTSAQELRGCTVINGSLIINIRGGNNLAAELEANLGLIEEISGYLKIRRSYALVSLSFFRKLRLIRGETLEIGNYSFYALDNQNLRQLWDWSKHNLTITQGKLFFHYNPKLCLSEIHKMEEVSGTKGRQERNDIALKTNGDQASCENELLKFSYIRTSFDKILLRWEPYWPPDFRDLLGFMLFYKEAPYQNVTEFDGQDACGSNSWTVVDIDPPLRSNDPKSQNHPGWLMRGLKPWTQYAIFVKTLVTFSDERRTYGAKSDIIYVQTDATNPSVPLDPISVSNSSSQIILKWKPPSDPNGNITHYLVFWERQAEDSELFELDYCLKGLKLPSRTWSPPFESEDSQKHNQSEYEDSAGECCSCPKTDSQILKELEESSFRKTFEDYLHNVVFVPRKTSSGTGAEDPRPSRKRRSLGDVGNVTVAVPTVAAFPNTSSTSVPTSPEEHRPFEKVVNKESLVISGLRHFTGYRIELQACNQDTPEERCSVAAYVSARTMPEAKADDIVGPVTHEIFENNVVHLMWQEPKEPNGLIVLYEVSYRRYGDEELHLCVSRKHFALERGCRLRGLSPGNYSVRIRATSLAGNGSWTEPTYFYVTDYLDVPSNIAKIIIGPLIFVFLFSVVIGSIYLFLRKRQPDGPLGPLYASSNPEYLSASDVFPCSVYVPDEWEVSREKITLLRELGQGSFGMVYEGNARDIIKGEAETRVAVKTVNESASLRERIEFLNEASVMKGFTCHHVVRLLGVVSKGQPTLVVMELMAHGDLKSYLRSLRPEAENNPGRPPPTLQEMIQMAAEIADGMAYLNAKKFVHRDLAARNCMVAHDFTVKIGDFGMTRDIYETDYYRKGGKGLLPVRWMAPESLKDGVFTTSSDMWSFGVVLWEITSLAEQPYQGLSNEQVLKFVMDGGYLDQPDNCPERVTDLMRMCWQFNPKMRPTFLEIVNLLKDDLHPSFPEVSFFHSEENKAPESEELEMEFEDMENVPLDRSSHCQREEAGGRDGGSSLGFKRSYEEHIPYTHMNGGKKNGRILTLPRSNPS

Row | autophosphorylation (c-Kit) | autophosphorylation (c-erbB2) | autophosphorylation (insulin receptor) | total area of endothelial staining in the retina or the appearance of retinal vessels compared to vehicle-treated mice [3] | less potent as an inhibitor of mouse VEGF receptor 2 compared to the human receptor (Flk-1) | overlying retinal vessels [4] | Compound | autophosphorylation (PDGF receptors) | autophosphorylation (VEGF receptors) | staining in the inner nuclear layer ([1]; P17 mice, 0.25 mg/kg) | total endothelial staining in the retina ([1]; P17 mice, 0.25 mg/kg) | endothelial cell staining in the retina [1, 5] | endothelial staining in the inner nuclear layer [1, 5] | endothelial cell staining in the inner nuclear layer and outer plexiform layer (deep capillary bed) ([1]; P17 mice, 25 mg/kg twice a day) | endothelial cell staining within the retina [1, 6] | neovascularization (endothelial cells on the surface of the retina) [1, 6] | extension of retinal vessels ([2]; P7, injections of 10 mg/kg starting on P0) | extension of the superficial capillary bed ([2]; P10, injections of 10 mg/kg starting on P0) | choroidal neovascularization at the site of each laser-induced rupture of Bruch's membrane [4] | integrated area of lectin staining per lesion ([4]; n = 5) | endothelial staining in the retina ([1]; dose comparable to the highest dose of CGP 79787D)
1 | inhibits | poor inhibitor | poor inhibitor | no difference | about 10 fold | appeared normal | Clc1ccc(Nc2nnc(Cc3ccncc3)c3ccccc23)cc1 [CGP 79787D] | inhibits | inhibits | no identifiable decrease | decreased total endothelial staining in the retina that is not statistically significant | significantly less than vehicle-treated controls | some decrease | striking absence | dramatic decrease | complete inhibition | only extended about half way to the periphery | has not yet reached the edge of the retina | very little if any | 0.01124±0.001483 mm^2 | –
2 | – | – | – | – | – | – | O=c1c(-c2ccc(O)cc2)coc2cc(O)cc(O)c12 [Genistein, 4', 5,7-trihydroxyisoflavone, reference compound] | – | – | – | – | – | – | – | – | – | – | – | – | – | no significant decrease
